≈ marks a conversion by molar mass, not a printed value. Like-named read-outs stand apart in the source and are kept apart here.
How the values were obtained:
M. tuberculosis isolates = test: microbe, parasite or virus in culture; type: cell-based, Mycobacterium tuberculosis; settings: for MIC50 / MIC90: Mycobacterium tuberculosis; for MIC50: read-out: MIC against M. tuberculosis isolates, MIC50; for MIC90: read-out: MIC against M. tuberculosis isolates, MIC90
resistant strain of MTB = type: in vivo, Mycobacterium tuberculosis; settings: for dose giving 2 log reduction in the organs: animals infected with resistant strains
[1] = tested on: sensitive/resistant strains of M. tuberculosis; test: Murine model of pulmonary tuberculosis, text statements not split by strain; type: in vivo, Mycobacterium tuberculosis; settings: monotherapy
[2] = combination study, one month, doses mg/kg: (I) 25.0 where present, INH 25.0, RIF 20.0, PYR 150.0, ETH 100.0
[3] = combination study, three months, doses mg/kg: (I) 25.0 where present, INH 25.0, RIF 20.0, PYR 150.0, ETH 100.0
[4] = combination study, two months, doses mg/kg: (I) 25.0 where present, INH 25.0, RIF 20.0, PYR 150.0, ETH 100.0
[5] = monotherapy 12.5 mg/kg, 8 Weeks Treatment (two months)
[6] = monotherapy 12.5 mg/kg, 12 Weeks Treatment (three months)
[7] = monotherapy 12.5 mg/kg, one month of treatment
[8] = monotherapy 25 mg/kg, 8 Weeks Treatment (two months)
[9] = monotherapy 25 mg/kg, 12 Weeks Treatment (three months)
[10] = monotherapy 25 mg/kg, one month of treatment
[11] = monotherapy 50 mg/kg, 8 Weeks Treatment (two months)
[12] = monotherapy 50 mg/kg, 12 Weeks Treatment (three months)
[13] = monotherapy 50 mg/kg, one month of treatment

Row | Compound | MIC50 (M. tuberculosis isolates) [µg/mL] | MIC90 (M. tuberculosis isolates) [µg/mL] | dose giving 2 log reduction in the organs (resistant strain of MTB) [mg/kg] | Mean Log10CFU in organs of mice infected with resistant strain of MTB, Lung (resistant strain of MTB; [2]) [Log10CFU] | Mean Log10CFU in organs of mice infected with resistant strain of MTB, Spleen (resistant strain of MTB; [2]) [Log10CFU] | Mean Log10CFU in organs of mice infected with resistant strain of MTB, Lung (resistant strain of MTB; [3]) [Log10CFU] | Mean Log10CFU in organs of mice infected with resistant strain of MTB, Spleen (resistant strain of MTB; [3]) [Log10CFU] | Mean Log10CFU in organs of mice infected with resistant strain of MTB, Lung (resistant strain of MTB; [4]) [Log10CFU] | Mean Log10CFU in organs of mice infected with resistant strain of MTB, Spleen (resistant strain of MTB; [4]) [Log10CFU] | Mean Log10CFU in organs of mice infected with resistant strain of MTB, Lung (resistant strain of MTB; [5]) [Log10CFU] | Mean Log10CFU in organs of mice infected with resistant strain of MTB, Spleen (resistant strain of MTB; [5]) [Log10CFU] | Mean Log10CFU in organs of mice infected with resistant strain of MTB, Lung (resistant strain of MTB; [6]) [Log10CFU] | Mean Log10CFU in organs of mice infected with resistant strain of MTB, Spleen (resistant strain of MTB; [6]) [Log10CFU] | Mean Log10CFU in organs of mice infected with resistant strain of MTB, Lung (resistant strain of MTB; [7]) [Log10CFU] | Mean Log10CFU in organs of mice infected with resistant strain of MTB, Spleen (resistant strain of MTB; [7]) [Log10CFU] | Mean Log10CFU in organs of mice infected with resistant strain of MTB, Lung (resistant strain of MTB; [8]) [Log10CFU] | Mean Log10CFU in organs of mice infected with resistant strain of MTB, Spleen (resistant strain of MTB; [8]) [Log10CFU] | Mean Log10CFU in organs of mice infected with resistant strain of MTB, Lung (resistant strain of MTB; [9]) [Log10CFU] | Mean Log10CFU in organs of mice infected with resistant strain of MTB, Spleen (resistant strain of MTB; [9]) [Log10CFU] | Mean Log10CFU in organs of mice infected with resistant strain of MTB, Lung (resistant strain of MTB; [10]) [Log10CFU] | other results
1 | Cc1c(CN2CCN(c3cccc(C(F)(F)F)c3)CC2)cc(-c2ccccc2)n1NC(=O)c1ccncc1 [Compound of formula (I)] | 0.12 | 0.25 | 12.5 | 2.86 ± 0.37 | 2.25 ± 0.18 | 1.30 ± 1.02 | 1.64 ± 1.12 | 2.37 ± 0.81 | 2.52 ± 0.48 | 3.32 ± 0.6 | 3.1 ± 1.13 | 2.51 ± 0.18 | 2.6 ± 0.34 | 2.97 ± 0.53 | 3.02 ± 0.22 | 2.83 ± 0.66 | 2.61 ± 0.56 | 1.86 ± 0.97 | 1.79 ± 0.92 | 2.70 ± 0.36 | MIC against M. tuberculosis isolates, Range (M. tuberculosis isolates; approximately 200 sensitive and resistant clinical isolates): 0.12 to 0.5 µg/mL; Mean Log10CFU in organs of mice infected with resistant strain of MTB, Spleen (resistant strain of MTB; [10]): 2.54 ± 0.20 Log10CFU; Mean Log10CFU in organs of mice infected with resistant strain of MTB, Lung (resistant strain of MTB; [11]): 2.51 ± 0.72 Log10CFU; Mean Log10CFU in organs of mice infected with resistant strain of MTB, Spleen (resistant strain of MTB; [11]): 2.37 ± 0.61 Log10CFU; Mean Log10CFU in organs of mice infected with resistant strain of MTB, Lung (resistant strain of MTB; [12]): 1.79 ± 0.92 Log10CFU; Mean Log10CFU in organs of mice infected with resistant strain of MTB, Spleen (resistant strain of MTB; [12]): 1.69 ± 0.88 Log10CFU; Mean Log10CFU in organs of mice infected with resistant strain of MTB, Lung (resistant strain of MTB; [13]): 2.59 ± 0.22 Log10CFU; Mean Log10CFU in organs of mice infected with resistant strain of MTB, Spleen (resistant strain of MTB; [13]): 2.32 ± 0.39 Log10CFU; reduction in viable bacilli in the target organs as compared to control animals ([1]; one month (Table III)): > 2 log; animals with complete absence of mycobacterium ([1]; treated for three months): 33%
2 | NNC(=O)c1ccncc1 [Isoniazid] | 4 (≈ 29.2 µM) | > 16 | > 50 | 5.23 ± 0.27 | 4.61 ± 0.43 | 5.37 ± 0.35 | 5.19 ± 0.65 | 5.15 ± 0.42 | 5.36 ± 0.84 | 6.01 ± 0.9 | 5.88 ± 0.41 | 5.1 ± 0.7 | 5.72 ± 0.17 | 5.47 ± 0.54 | 5.01 ± 0.45 | 5.91 ± 0.35 | 5.7 ± 0.34 | 4.79 ± 0.55 | 5.62 ± 0.63 | 5.34 ± 0.34 | Mean Log10CFU in organs of mice infected with resistant strain of MTB, Spleen (resistant strain of MTB; [10]): 4.97 ± 0.52 Log10CFU; Mean Log10CFU in organs of mice infected with resistant strain of MTB, Lung (resistant strain of MTB; [11]): 5.42 ± 0.74 Log10CFU; Mean Log10CFU in organs of mice infected with resistant strain of MTB, Spleen (resistant strain of MTB; [11]): 5.1 ± 0.61 Log10CFU; Mean Log10CFU in organs of mice infected with resistant strain of MTB, Lung (resistant strain of MTB; [12]): 4.76 ± 0.20 Log10CFU; Mean Log10CFU in organs of mice infected with resistant strain of MTB, Spleen (resistant strain of MTB; [12]): 5.64 ± 066 Log10CFU; Mean Log10CFU in organs of mice infected with resistant strain of MTB, Lung (resistant strain of MTB; [13]): 4.77 ± 0.61 Log10CFU; Mean Log10CFU in organs of mice infected with resistant strain of MTB, Spleen (resistant strain of MTB; [13]): 4.83 ± 0.68 Log10CFU
3 | CO[C@H]1/C=C/O[C@@]2(C)Oc3c(C)c(O)c4c(O)c(c(/C=N/N5CCN(C)CC5)c(O)c4c3C2=O)NC(=O)/C(C)=C\C=C\[C@H](C)[C@H](O)[C@@H](C)[C@@H](O)[C@@H](C)[C@H](OC(C)=O)[C@@H]1C [Rifampicin] | 4 (≈ 4.86 µM) | > 16 |  | 3.05 ± 0.43 | 2.44 ± 0.32 | 0.94 ± 1.04 | 1.78 ± 1.38 | 2.45 ± 1.15 | 2.60 ± 0.59 |  |  |  |  |  |  |  |  |  |  |  | 

From US7491721B2, “Antimycobacterial pharmaceutical composition” (priority 2004, dated 2009)
